Measured values: ChEMBL document CHEMBL5247641, “Discovery of Potent DYRK2 Inhibitors with High Selectivity, Great Solubility, and Excellent Safety Properties for the Treatment of Prostate Cancer” (J Med Chem, 2023)
Activity calls are given as the source filed them. The calls are words filed in the database; no cut-off is given here.

Columns and labels:
DU-145 [1] = assay: Antitumor activity against human DU-145 xenografted in BALB/c nude mouse as downregulation of c-MYC level in tumor at 100 to 200 mg/kg,po administrated once daily for 21 days by Western blot analysis; assay type: functional, organism-based; details: dose 100-200 mg/kg, time 21.0 day
CWR22R [2] = assay: Antiproliferative activity against human 22Rv1 cells assessed as cell growth inhibition at 2 to 8 uM incubated for 5 days by microplate reader analysis; assay type: functional, cell-based; details: dose 2-8 µM, time 5.0 day
CWR22R [3] = assay: Induction of apoptosis in human 22Rv1 cells assessed as increase in p53 level at 2 to 8 uM incubated for 24 hrs by Western blot analysis; assay type: functional, cell-based; details: dose 2-8 µM
DU-145 [4] = assay: Induction of apoptosis in human DU-145 cells assessed as apoptotis rate at 2 uM incubated for 24 hrs by Annexin V-FITC and PI staining based flow cytometry (Rvb= 4.36%); assay type: functional
[5] = Acute toxicity in ICR mouse assessed as change in kidney weight at 1000 to 10000 mg/kg,po and measured after 14 days; assay type: organism-based; details: in vivo, 336 h, dose 1000-10000 mg/kg, time 14 day
CWR22R [6] = assay: Induction of cell cycle arrest in human 22Rv1 cells assessed as accumulation of cells at G2 phase at 1 uM incubated for 24 hrs by propidium iodide based flow cytometric analysis (Rvb=24.21 %); assay type: functional
[7] = Cytotoxicity against human RWPE-1 cells assessed as inhibition of cell proliferation incubated for 3 days by CCK-8 assay; assay type: toxicity, cell-based
DU-145 [8] = assay: Induction of apoptosis in human DU-145 cells assessed as apoptotis rate at 4 uM incubated for 24 hrs by Annexin V-FITC and PI staining based flow cytometry (Rvb= 4.36%); assay type: functional
DU-145 [9] = assay: Antiproliferative activity against human DU-145 cells assessed as reduction in c-Myc expression level at 2 to 8 uM incubated for 24 hrs by Western blot analysis; assay type: functional, cell-based; details: dose 2-8 µM
[10] = Acute toxicity in ICR mouse assessed as appearance of lesions in lung at 5000 to 10000 mg/kg,po and measured after 14 days by H and E staining based microscopic analysis; assay type: organism-based; details: in vivo, 336 h, dose 5000-10000 mg/kg, time 14 day
DU-145 [11] = assay: Induction of cell cycle arrest in human DU-145 cells assessed as accumulation of cells at G1 phase at 2 uM incubated for 24 hrs by propidium iodide based flow cytometric analysis (Rvb= 53.46%); assay type: functional
DU-145 [12] = assay: Induction of cell cycle arrest in human DU-145 cells assessed as accumulation of cells at G2 phase at 4 uM incubated for 24 hrs by propidium iodide based flow cytometric analysis (Rvb= 17.52%); assay type: functional
CWR22R [13] = assay: Antiproliferative activity against human 22Rv1 cells assessed as inhibition of cell proliferation incubated for 3 days by CCK-8 assay; assay type: functional, cell-based; details: 22Rv1, 72 h
CWR22R [14] = assay: Induction of apoptosis in human 22Rv1 cells assessed as increase in cleaved PARP level at 2 to 8 uM incubated for 24 hrs by Western blot analysis; assay type: functional, cell-based; details: dose 2-8 µM
CWR22R [15] = assay: Induction of apoptosis in human 22Rv1 cells assessed as apoptotis rate at 2 uM incubated for 24 hrs by Annexin V-FITC and PI staining based flow cytometry (Rvb= 3.08%); assay type: functional
CWR22R [16] = assay: Induction of cell cycle arrest in human 22Rv1 cells assessed as accumulation of cells at S phase at 4 uM incubated for 24 hrs by propidium iodide based flow cytometric analysis (Rvb=20.51 %); assay type: functional
DU-145 [17] = assay: Induction of apoptosis in human DU-145 cells assessed as increase in cleaved PARP level at 2 to 8 uM incubated for 24 hrs by Western blot analysis; assay type: functional, cell-based; details: dose 2-8 µM
DU-145 [18] = assay: Antitumor activity against human DU-145 xenografted in BALB/c nude mouse as upregulation of p53 level in tumor at 100 to 200 mg/kg,po administrated once daily for 21 days by Western blot analysis; assay type: functional, organism-based; details: dose 100-200 mg/kg, time 21.0 day
DU-145 [19] = assay: Antitumor activity against human DU-145 xenografted in BALB/c nude mouse as upregulation of cleaved PARP level in tumor at 100 to 200 mg/kg,po administrated once daily for 21 days by Western blot analysis; assay type: functional, organism-based; details: dose 100-200 mg/kg, time 21.0 day
[20] = Acute toxicity in ICR mouse assessed as change in lung weight at 1000 to 10000 mg/kg,po and measured after 14 days; assay type: organism-based; details: in vivo, 336 h, dose 1000-10000 mg/kg, time 14 day
[21] = Acute toxicity in ICR mouse assessed as appearance of lesions in liver at 5000 to 10000 mg/kg,po and measured after 14 days by H and E staining based microscopic analysis; assay type: organism-based; details: in vivo, 336 h, dose 5000-10000 mg/kg, time 14 day
DU-145 [22] = assay: Antitumor activity against human DU-145 xenografted in BALB/c nude mouse as downregulation of p-4E-BP1 level in tumor at 100 to 200 mg/kg,po administrated once daily for 21 days by Western blot analysis; assay type: functional, organism-based; details: dose 100-200 mg/kg, time 21.0 day
DU-145 [23] = assay: Antitumor activity against human DU-145 xenografted in BALB/c nude mouse as upregulation of E-cadherin level in tumor at 100 to 200 mg/kg,po administrated once daily for 21 days by Western blot analysis; assay type: functional, organism-based; details: dose 100-200 mg/kg, time 21.0 day
CWR22R [24] = assay: Antiproliferative activity against human 22Rv1 cells assessed as inhibition of clone formation at 1 to 8 uM incubated for 2 weeks by crystal violet staining based assay; assay type: functional, cell-based; details: dose 1-8 µM
DU-145 [25] = assay: Induction of cell cycle arrest in human DU-145 cells assessed as accumulation of cells at G2 phase at 1 uM incubated for 24 hrs by propidium iodide based flow cytometric analysis (Rvb= 17.52%); assay type: functional
DU-145 [26] = assay: Induction of cell cycle arrest in human DU-145 cells assessed as accumulation of cells at S phase at 1 uM incubated for 24 hrs by propidium iodide based flow cytometric analysis (Rvb= 29.02%); assay type: functional
DU-145 [27] = assay: Induction of cell cycle arrest in human DU-145 cells assessed as accumulation of cells at S phase at 4 uM incubated for 24 hrs by propidium iodide based flow cytometric analysis (Rvb= 29.02%); assay type: functional
CWR22R [28] = assay: Induction of apoptosis in human 22Rv1 cells assessed as apoptotis rate at 4 uM incubated for 24 hrs by Annexin V-FITC and PI staining based flow cytometry (Rvb= 3.08%); assay type: functional
CWR22R [29] = assay: Antimigratory activity against human 22Rv1 cells assessed as inhibition of cell migration at 1 to 8 uM incubated for 24 hrs by transwell migration assay; assay type: functional, cell-based; details: dose 1-8 µM
[30] = Acute toxicity in ICR mouse assessed as appearance of lesions in spleen at 5000 to 10000 mg/kg,po and measured after 14 days by H and E staining based microscopic analysis; assay type: organism-based; details: in vivo, 336 h, dose 5000-10000 mg/kg, time 14 day
[31] = Toxicity in BALB/c nude mouse xenografted with human DU-145 assessed as body weight change at 100 to 200 mg/kg,po qd administrated once daily for 21 days; assay type: organism-based; details: in vivo, 504 h, dose 100-200 mg/kg, time 21 day
[32] = Acute toxicity in ICR mouse assessed as change in spleen weight at 1000 to 10000 mg/kg,po and measured after 14 days; assay type: organism-based; details: in vivo, 336 h, dose 1000-10000 mg/kg, time 14 day
DU-145 [33] = assay: Induction of apoptosis in human DU-145 cells assessed as increase in p53 level at 2 to 8 uM incubated for 24 hrs by Western blot analysis; assay type: functional, cell-based; details: dose 2-8 µM
CWR22R [34] = assay: Antiproliferative activity against human 22Rv1 cells assessed as reduction in c-Myc expression level at 2 to 8 uM incubated for 24 hrs by Western blot analysis; assay type: functional, cell-based; details: dose 2-8 µM

SMILES: Cl.O=C(c1ccc(Nc2ncc(F)c(-c3ccc4scnc4c3)n2)nc1)N1CCNCC1
- Activity (DU-145 [1]): Active
- Activity (CWR22R [2]): Active
- Activity (CWR22R [3]): Active
- Activity (DU-145 [4]): 6.73%
- Activity [5]: Non-Toxic
- Activity (CWR22R [6]): 23.01%
- IC50 at 3 days [7]: 25 µM
- Activity (DU-145 [8]): 7.86%
- Activity (DU-145 [9]): Active
- Activity [10]: Non-Toxic
- Activity (DU-145 [11]): 61.07%
- Activity (DU-145 [12]): 12.12%
- IC50 (CWR22R [13]): 2.56 µM
- Activity (CWR22R [14]): Active
- Activity (CWR22R [15]): 11.25%
- Activity (CWR22R [16]): 13.85%
- Activity (DU-145 [17]): Active
- Activity (DU-145 [18]): Active
- Activity (DU-145 [19]): Active
- Activity [20]: Non-Toxic
- Activity [21]: Non-Toxic
- Activity (DU-145 [22]): Active
- Activity (DU-145 [23]): Active
- Activity (CWR22R [24]): Active
- Activity (DU-145 [25]): 17.18%
- Activity (DU-145 [26]): 28.05%
- Activity (DU-145 [27]): 19.37%
- Activity (CWR22R [28]): 21.78%
- Activity (CWR22R [29]): Active
- Activity [30]: Non-Toxic
- Activity [31]: Non-Toxic
- Activity [32]: Non-Toxic
- Activity (DU-145 [33]): Active
- Activity (CWR22R [34]): Active
